Assay results taken from ChEMBL document CHEMBL1201862, “PubChem BioAssay data set” (2004).
Blank lines part the entries; values can stand above or below the molecule they belong to. Activity calls are given as the source filed them.

How the values were obtained:
[1] = target: T1, High affinity choline transporter 1 (Homo sapiens, UniProt Q9GZV3); assay: human choline transporter blockers, potency – cell-based, 5-point CRC, membrane potential dye, dose response (AID 504840); type: functional
T1 sequence (Q9GZV3 whole entry): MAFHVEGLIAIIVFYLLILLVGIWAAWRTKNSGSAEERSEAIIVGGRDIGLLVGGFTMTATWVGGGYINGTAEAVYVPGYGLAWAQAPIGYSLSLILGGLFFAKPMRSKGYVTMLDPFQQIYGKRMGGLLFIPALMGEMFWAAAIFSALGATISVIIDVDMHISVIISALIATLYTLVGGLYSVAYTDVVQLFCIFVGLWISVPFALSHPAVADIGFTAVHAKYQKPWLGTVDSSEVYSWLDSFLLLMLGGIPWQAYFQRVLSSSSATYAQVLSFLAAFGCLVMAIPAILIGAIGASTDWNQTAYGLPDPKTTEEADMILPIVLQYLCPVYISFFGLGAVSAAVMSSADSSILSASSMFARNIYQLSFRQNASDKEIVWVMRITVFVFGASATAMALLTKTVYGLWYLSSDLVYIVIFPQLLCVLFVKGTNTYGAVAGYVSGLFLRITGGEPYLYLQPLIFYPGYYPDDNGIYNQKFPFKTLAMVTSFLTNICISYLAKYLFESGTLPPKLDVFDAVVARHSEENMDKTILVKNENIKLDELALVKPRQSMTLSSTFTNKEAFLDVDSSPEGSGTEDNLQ

[2] = target: T1, High affinity choline transporter 1; assay: human choline transporter blockers, potency – cell-based, 10-point CRC, membrane potential dye, dose response (AID 588401); type: functional;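 also: membrane potential dye fluorescence of choline-evoked depolarization via CHT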
[3] = target: T1, High affinity choline transporter 1; assay: human choline transporter radiolabel uptake blockers – cell-based, 3H-choline uptake, CHT LV-AA trafficking mutant, CRC, dose response (AID 602208); type: functional
[4] = target: Potassium voltage-gated channel subfamily KQT member 2 (Rattus norvegicus, UniProt O88943); assay: blockers of KCNQ2 channel current – cell-based, automated electrophysiology, set II, rat KCNQ2, dose response (AID 588637); type: functional
Potassium voltage-gated channel subfamily KQT member 2, sequence (O88943 whole entry): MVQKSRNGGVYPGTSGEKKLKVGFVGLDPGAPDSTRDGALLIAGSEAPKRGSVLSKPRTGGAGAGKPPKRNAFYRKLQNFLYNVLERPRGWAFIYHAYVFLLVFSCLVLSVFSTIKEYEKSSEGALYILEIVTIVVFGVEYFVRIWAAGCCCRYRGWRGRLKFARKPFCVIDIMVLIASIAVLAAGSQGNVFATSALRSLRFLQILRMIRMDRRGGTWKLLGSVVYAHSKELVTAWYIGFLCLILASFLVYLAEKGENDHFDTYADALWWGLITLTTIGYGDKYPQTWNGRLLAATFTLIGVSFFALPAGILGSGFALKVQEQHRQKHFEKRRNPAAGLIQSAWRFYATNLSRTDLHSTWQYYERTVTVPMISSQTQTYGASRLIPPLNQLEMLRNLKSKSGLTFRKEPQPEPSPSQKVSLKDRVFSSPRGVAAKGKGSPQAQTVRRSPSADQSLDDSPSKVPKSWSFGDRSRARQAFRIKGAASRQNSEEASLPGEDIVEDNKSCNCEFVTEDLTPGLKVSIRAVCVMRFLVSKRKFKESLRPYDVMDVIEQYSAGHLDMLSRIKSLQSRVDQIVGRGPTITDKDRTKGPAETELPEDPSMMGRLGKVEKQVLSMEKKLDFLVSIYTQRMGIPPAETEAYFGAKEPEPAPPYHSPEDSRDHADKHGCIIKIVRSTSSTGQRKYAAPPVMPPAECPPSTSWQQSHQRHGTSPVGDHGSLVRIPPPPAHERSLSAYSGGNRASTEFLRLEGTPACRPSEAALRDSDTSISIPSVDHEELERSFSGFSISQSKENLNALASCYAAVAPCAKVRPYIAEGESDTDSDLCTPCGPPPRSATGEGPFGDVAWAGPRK

[5] = target: Tyrosine-protein phosphatase non-receptor type 11 (Homo sapiens, UniProt Q06124); assay: PTPN11 enzyme inhibitors – biochemical, selectivity assay for STEP inhibitor project, dose response (AID 602367); type: functional; conditions: read-out: IC50_Mean
[6] = target: Tyrosine-protein phosphatase non-receptor type 5 (Homo sapiens, UniProt P54829); assay: PTPN5 enzyme inhibition – biochemical, fluorescence intensity, uHTS hits, confirmation (AID 602372); type: functional; conditions: read-out: IC50_Mean
Tyrosine-protein phosphatase non-receptor type 5, sequence (P54829 whole entry): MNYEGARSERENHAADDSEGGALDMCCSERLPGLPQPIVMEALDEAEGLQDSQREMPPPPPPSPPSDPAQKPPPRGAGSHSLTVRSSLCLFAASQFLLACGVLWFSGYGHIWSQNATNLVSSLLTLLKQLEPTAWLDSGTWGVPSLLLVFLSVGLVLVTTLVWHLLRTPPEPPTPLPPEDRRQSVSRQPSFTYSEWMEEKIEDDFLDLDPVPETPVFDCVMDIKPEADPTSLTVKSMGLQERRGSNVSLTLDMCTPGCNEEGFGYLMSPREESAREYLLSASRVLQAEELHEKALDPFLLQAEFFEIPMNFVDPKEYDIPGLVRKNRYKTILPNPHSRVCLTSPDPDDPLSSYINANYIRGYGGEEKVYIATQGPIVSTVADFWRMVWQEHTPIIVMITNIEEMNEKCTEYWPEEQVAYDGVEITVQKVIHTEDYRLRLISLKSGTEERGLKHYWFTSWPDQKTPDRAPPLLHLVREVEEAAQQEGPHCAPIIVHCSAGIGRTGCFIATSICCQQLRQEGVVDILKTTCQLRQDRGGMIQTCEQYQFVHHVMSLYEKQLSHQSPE

[7] = target: Dual specificity protein phosphatase 3 (Homo sapiens, UniProt P51452); assay: VHR phosphatase inhibition, dose response, selectivity assay for STEP inhibitor project, biochemical (AID 602374); type: functional; conditions: read-out: IC50_Mean
Dual specificity protein phosphatase 3, sequence (P51452 whole entry): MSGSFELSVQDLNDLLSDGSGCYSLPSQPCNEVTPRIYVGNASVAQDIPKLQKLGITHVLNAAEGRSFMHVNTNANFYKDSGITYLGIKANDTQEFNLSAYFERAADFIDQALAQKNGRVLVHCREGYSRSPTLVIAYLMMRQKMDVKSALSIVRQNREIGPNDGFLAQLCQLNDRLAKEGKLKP

Caspase-6 = target: T2, Caspase-6 (Homo sapiens, UniProt P55212); assay: inhibition of CASP6 peptide cleavage – biochemical, VEID-R110 fluorescence, cherry-pick, dose response (AID 720632)
T2 sequence (P55212 whole entry): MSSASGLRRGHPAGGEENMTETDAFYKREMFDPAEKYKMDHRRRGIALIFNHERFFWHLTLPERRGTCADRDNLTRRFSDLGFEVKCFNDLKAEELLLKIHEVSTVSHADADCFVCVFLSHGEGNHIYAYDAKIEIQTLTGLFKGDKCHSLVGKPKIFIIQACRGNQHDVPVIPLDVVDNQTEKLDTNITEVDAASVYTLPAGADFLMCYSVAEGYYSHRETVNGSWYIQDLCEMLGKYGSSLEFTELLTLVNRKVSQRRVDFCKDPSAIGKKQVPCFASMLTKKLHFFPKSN

Melanocortin receptor 4 = Melanocortin receptor 4 (Homo sapiens, UniProt P32245); type: functional, cell-based;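 also: Cell-based assay with luminescence read-out, confirmatory dose-response testing for agonist activity of biased ligands at MC4R; human U2OS cells with tagged receptor and beta-arrestin; potency of agonists that increase receptor coupling to beta-arrestin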
Melanocortin receptor 4, sequence (P32245 whole entry): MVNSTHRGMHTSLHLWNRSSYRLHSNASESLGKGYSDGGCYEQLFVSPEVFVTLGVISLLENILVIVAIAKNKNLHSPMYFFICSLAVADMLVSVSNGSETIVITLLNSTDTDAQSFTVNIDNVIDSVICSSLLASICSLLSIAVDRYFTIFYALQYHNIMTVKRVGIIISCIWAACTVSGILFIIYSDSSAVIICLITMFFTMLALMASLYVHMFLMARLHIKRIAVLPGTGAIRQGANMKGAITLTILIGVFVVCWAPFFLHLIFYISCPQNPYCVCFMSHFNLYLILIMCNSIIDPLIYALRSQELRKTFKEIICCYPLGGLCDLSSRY

[8] = target: T3, Apoptotic protease-activating factor 1 (Homo sapiens, UniProt O14727); assay: SAR analysis of small molecule Activators of Apaf-1 in a Fluorescent assay.; type: functional; conditions: read-out: EC50_Mean;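 also: caspase-3 cleavage of fluorogenic Rh110 DEVD substrate downstream of apoptosome activation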
T3 sequence (O14727 whole entry): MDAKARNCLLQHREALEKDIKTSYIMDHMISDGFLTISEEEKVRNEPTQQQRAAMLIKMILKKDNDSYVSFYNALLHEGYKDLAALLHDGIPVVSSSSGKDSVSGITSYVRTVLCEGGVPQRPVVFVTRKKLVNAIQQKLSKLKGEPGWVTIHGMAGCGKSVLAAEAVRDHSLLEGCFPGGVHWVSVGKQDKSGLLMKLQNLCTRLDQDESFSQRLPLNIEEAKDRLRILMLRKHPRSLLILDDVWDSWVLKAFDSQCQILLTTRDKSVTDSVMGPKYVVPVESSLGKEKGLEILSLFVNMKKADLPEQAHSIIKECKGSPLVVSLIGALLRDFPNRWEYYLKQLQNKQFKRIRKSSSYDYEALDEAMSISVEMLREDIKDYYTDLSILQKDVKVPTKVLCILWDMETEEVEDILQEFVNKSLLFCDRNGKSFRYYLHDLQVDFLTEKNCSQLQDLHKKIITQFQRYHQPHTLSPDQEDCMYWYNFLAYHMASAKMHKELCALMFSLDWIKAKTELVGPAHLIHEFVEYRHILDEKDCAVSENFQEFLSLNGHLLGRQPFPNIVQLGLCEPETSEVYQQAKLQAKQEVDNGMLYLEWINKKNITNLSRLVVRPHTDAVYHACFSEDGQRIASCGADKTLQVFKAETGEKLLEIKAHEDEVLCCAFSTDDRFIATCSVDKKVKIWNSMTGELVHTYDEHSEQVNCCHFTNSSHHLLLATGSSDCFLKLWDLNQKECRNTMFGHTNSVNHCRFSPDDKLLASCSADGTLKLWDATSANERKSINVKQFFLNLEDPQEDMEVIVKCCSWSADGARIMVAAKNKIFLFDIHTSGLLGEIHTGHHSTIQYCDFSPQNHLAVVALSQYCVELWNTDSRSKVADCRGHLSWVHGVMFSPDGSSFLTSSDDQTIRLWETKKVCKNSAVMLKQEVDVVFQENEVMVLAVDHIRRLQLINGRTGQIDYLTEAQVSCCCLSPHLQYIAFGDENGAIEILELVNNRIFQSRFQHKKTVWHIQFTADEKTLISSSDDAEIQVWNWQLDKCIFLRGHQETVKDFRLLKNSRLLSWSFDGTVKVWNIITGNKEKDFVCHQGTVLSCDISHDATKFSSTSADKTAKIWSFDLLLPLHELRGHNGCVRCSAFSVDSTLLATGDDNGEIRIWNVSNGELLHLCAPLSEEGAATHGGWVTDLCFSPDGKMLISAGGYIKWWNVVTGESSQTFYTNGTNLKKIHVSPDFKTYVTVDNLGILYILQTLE

[9] = target: T4, Low molecular weight phosphotyrosine protein phosphatase (Homo sapiens, UniProt P24666); type: functional; conditions: read-out: IC50_Mean;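 also: Dose-response confirmation assay measuring inhibition of LMPTP enzyme activity by fluorescence intensity read-out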
T4 sequence (P24666 whole entry): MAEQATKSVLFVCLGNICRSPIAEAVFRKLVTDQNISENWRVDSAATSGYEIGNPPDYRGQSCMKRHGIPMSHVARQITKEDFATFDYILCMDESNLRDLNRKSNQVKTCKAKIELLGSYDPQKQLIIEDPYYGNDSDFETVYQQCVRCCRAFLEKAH

Aminopeptidase N = target: T5, Aminopeptidase N (Plasmodium falciparum FcB1/Columbia, UniProt O96935); assay: malaria alanyl aminopeptidase activity blockers – biochemical, fluorogenic H-Leu-NHMec substrate, 1536-well (AID 1445); set-up: species or system Plasmodium falciparum 3D7, 3D7
T5 sequence (O96935 whole entry): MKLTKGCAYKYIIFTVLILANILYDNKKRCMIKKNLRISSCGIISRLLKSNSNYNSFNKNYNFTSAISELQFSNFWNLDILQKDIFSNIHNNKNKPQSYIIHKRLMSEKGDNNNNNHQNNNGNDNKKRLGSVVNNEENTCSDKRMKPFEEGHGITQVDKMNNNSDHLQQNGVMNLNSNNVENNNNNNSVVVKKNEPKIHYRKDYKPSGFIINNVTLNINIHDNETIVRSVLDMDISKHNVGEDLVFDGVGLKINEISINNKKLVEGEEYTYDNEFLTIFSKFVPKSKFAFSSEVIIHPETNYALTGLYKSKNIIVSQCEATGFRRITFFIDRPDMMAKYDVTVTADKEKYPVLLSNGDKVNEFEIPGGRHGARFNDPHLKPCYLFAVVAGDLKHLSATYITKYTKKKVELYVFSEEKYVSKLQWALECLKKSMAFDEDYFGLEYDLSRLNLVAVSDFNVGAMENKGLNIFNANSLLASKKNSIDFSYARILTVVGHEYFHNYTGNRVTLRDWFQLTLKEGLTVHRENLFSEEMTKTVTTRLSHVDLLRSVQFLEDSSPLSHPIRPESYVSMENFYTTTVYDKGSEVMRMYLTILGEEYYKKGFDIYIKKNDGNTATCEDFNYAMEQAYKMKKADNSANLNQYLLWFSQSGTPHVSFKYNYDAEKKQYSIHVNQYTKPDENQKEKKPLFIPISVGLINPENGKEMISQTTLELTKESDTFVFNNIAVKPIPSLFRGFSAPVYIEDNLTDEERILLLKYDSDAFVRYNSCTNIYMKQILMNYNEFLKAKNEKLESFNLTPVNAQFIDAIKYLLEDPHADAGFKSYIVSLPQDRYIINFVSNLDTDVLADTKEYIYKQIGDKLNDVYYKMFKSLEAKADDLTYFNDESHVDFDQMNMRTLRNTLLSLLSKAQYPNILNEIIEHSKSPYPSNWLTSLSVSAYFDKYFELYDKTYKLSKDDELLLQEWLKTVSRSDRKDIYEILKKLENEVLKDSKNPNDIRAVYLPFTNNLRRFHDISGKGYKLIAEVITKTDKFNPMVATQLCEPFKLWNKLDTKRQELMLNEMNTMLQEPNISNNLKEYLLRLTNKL

[10] = target: Mitochondrial peptide methionine sulfoxide reductase (Bos taurus, UniProt P54149); type: functional;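 also: absorbance read-out, biochemical high-throughput dose-response screen for MsrA inhibitors, confirmatory; recombinant bovine MsrA coupled to E. coli TrxB with NADPH and selenocystamine; potency is for inhibitors of MsrA activity on DMSO substrate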
Mitochondrial peptide methionine sulfoxide reductase, sequence (P54149 whole entry): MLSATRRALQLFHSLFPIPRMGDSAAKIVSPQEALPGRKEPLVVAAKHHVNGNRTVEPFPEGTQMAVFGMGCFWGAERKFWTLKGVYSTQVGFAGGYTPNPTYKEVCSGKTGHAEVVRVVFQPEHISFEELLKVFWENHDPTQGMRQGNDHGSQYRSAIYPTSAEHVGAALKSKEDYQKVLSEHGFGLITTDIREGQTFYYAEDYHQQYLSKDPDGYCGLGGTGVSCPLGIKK

IC50 [5]: 3.01 µM (active) | IC50 [6]: 14.2 µM (active) | IC50 [7]: 4.92 µM (active) | AC50 (Caspase-6): 2.58 µM (active)
Structure (SMILES): O=C(Nc1cccc2c(=O)[nH][nH]c(=O)c12)c1ccc([N+](=O)[O-])cc1

EC50 (Melanocortin receptor 4): > 89.2 µM (inactive)
Structure (SMILES): COc1ccc(-c2cnc3c(NC(C)=O)cc(-c4ccccc4OC)cn23)cc1OC

IC50 [9]: 80 µM (inactive)
Structure (SMILES): CCc1ccc(C=C2SC(=S)N(CCCC(=O)Nc3ccc(C(=O)O)cc3)C2=O)cc1

IC50 (Aminopeptidase N): 90.7 µM (active) | IC50 [10]: 122 µM (inactive)
Structure (SMILES): O=C(O)c1cc(-c2ccc(/C=N/N3C(=O)C4C5C=CC(C6CC56)C4C3=O)o2)ccc1Cl (stereo not drawn)

More lines, now with the values behind:

Structure (SMILES): CC1CCC(NC(=O)c2cccc(S(=O)(=O)N3CCN(C)CC3)c2)CC1 (stereo not drawn)
IC50 [1]: 4.17 µM (active) | IC50 [2]: 2.05 µM (active) | IC50 [3]: 4.68 µM (active)

Structure (SMILES): CC1=C(C(=O)NC(C)c2ccc3c(c2)OCCO3)C2(CCC(C)CC2)OC1=O (stereo not drawn)
IC50 [4]: 12 µM (active)

Structure (SMILES): O=C(O)c1cc(-c2cc(F)c(F)cc2F)[nH]n1
EC50 [8]: > 100 µM (inactive)
